According to ChEMBL document CHEMBL1157744, “Small molecule antagonist of leukocyte function associated antigen-1 (LFA-1): structure-activity relationships leading to the identification of 6-((5S,9R)-9-(4-cyanophenyl)-3-(3,5-dichlorophenyl)-1-methyl-2,4-dioxo-1,3,7-triazaspiro[4.4]nonan-7-yl)nicotinic acid (BMS-688521)” (J Med Chem, 2010):
The source made the active and inactive calls. The rule behind the calls is not given here.

Legend:
[1] = in vitro; conditions: human, Caco-2
[2] = in vivo; conditions: dog, iv, 1 mg/kg
[3] = target: Integrin alpha-M (Homo sapiens) (UniProt P11215); conditions: THP-1, 10 uM
[4] = in vivo; conditions: rat, plasma, po, 5 mg/kg
[5] = in vivo; conditions: dog, po, 5 mg/kg
[6] = target: Integrin alpha-4/beta-1 (Homo sapiens) (UniProt P05556+P13612); conditions: Jurkat, 10 uM
[7] = in vivo; conditions: mouse, iv, 1 mg/kg
[8] = in vivo; conditions: mouse, po, 5 mg/kg
[9] = in vivo; conditions: rat, po, 5 mg/kg
[10] = organism: Mus musculus; conditions: BALB/c, 1 mg/kg
[11] = in vivo; conditions: mouse, iv, 1 mg/kg; remark: listed apart in the source
[12] = organism: Mus musculus; conditions: BALB/c, 3 to 10 mg/kg
[13] = in vivo; conditions: rat, iv, 1 mg/kg
[14] = in vivo; conditions: mouse, plasma, po, 5 mg/kg
[15] = target: T1, Integrin alpha-2/beta-3 (Homo sapiens) (UniProt P05106+P17301); conditions: 30 uM
[16] = in vitro; conditions: Purkinje fibers
[17] = in vivo; conditions: rat, iv, 1 mg/kg; remark: listed apart in the source
[18] = in vivo; conditions: dog, po, 5 mg/kg; remark: listed apart in the source
[19] = target: hERG (KCNH2) (Homo sapiens, UniProt Q12809); assay: in vitro
Sequence of hERG (KCNH2) (Q12809 whole entry): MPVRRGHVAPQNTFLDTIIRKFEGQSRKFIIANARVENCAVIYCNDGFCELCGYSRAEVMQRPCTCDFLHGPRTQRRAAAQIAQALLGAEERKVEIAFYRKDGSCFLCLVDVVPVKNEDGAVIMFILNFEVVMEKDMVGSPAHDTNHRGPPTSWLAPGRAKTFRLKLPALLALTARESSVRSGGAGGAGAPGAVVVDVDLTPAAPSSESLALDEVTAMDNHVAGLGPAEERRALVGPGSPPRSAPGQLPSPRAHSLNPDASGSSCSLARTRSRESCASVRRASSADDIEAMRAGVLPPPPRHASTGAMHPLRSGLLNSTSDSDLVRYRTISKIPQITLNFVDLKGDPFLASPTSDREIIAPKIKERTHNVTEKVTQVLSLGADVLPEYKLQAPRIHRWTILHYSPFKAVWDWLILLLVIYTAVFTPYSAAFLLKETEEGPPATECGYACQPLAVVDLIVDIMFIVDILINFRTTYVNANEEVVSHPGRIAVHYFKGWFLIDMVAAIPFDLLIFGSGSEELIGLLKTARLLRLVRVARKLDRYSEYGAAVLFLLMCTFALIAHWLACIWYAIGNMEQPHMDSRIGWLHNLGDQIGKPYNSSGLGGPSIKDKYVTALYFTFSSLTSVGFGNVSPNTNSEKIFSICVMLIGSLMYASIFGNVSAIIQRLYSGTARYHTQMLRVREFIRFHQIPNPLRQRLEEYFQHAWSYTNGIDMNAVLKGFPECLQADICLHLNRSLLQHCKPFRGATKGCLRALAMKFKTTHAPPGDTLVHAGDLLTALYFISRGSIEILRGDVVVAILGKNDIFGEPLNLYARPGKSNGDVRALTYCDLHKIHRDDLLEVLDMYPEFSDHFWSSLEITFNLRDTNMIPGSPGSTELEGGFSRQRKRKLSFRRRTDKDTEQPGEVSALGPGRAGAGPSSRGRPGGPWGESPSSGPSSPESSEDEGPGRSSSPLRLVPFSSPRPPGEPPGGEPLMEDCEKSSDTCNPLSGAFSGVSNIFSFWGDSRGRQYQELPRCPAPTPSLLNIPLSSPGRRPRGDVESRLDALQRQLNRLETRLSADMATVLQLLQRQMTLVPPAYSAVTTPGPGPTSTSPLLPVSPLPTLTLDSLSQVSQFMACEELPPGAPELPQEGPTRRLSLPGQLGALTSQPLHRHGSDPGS

[20] = in vivo; conditions: dog, iv, 1 mg/kg; remark: listed apart in the source
[21] = in vivo; conditions: dog, iv, 1 mg/kg; remark: listed apart in the source
[22] = in vivo; conditions: dog, iv, 1 mg/kg; remark: listed apart in the source
[23] = in vivo; conditions: mouse, iv, 1 mg/kg; remark: listed apart in the source
[24] = in vivo; conditions: rat, iv, 1 mg/kg; remark: listed apart in the source
[25] = target: T1, Integrin alpha-2/beta-3 (Homo sapiens); conditions: 30 uM; remark: listed apart in the source
[26] = organism: Rattus norvegicus; conditions: in vivo, po, 5 mg/kg
[27] = organism: Mus musculus; conditions: in vivo, po, 5 mg/kg
[28] = in vivo; conditions: rat, iv, 1 mg/kg; remark: listed apart in the source
[29] = in vivo; conditions: mouse, po, 5 mg/kg; remark: listed apart in the source
[30] = in vitro; conditions: human, serum
[31] = organism: Canis familiaris; conditions: dog, in vivo, po, 5 mg/kg
[32] = in vivo; conditions: rat, po, 5 mg/kg; remark: listed apart in the source
[33] = in vivo; conditions: mouse, iv, 1 mg/kg; remark: listed apart in the source
[34] = in vivo; conditions: dog, plasma, po, 5 mg/kg

Question: For `CN1C(=O)N(c2cc(Cl)cc(Cl)c2)C(=O)[C@]12CN(c1ccc(C(=O)O)cn1)C[C@H]2c1ccc(C#N)cc1`, which Papp A→B [1] is on record?
Answer: 14.8 ×10⁻⁶ cm/s

Question: What about the Vd [2] of the same compound?
Answer: 0.2 L/kg

Question: What about the inhibition [3] of the same compound?
Answer: 18%

Question: What about the AUC [4] of the same compound?
Answer: 13 µM·h

Question: And the Cmax [5]?
Answer: 22000 nM

Question: And the inhibition [6]?
Answer: 0%

Question: And the clearance [7]?
Answer: 50 mL/min/kg

Question: What about the Cmax [8] of the same compound?
Answer: 320 nM

Question: And the bioavailability [9]?
Answer: 82%

Question: What about the inhibition [10] of the same compound?
Answer: Active

Question: And the Vd [11]?
Answer: 5.1 L/kg

Question: What about the inhibition [12] of the same compound?
Answer: Dose-dependent effect

Question: What about the Vd [13] of the same compound?
Answer: 2.3 L/kg

Question: What about the AUC [14] of the same compound?
Answer: 1.5 µM·h

Question: And the inhibition [15]?
Answer: 0%

Question: And the inhibition at 30 µM [16]?
Answer: < 5%

Question: And the clearance [17]?
Answer: 11 mL/min/kg

Question: And the bioavailability [18]?
Answer: 48%

Question: What about the inhibition at 30 µM [19] of the same compound?
Answer: 20%

Question: And the MRT [20]?
Answer: 6.9 h

Question: And the clearance [21]?
Answer: 0.5 mL/min/kg

Question: And the half-life [22]?
Answer: 4.7 h

Question: And the half-life [23]?
Answer: 1.6 h

Question: What about the half-life [24] of the same compound?
Answer: 3.3 h

Question: What about the inhibition [25] of the same compound?
Answer: 0%

Question: And the Tmax [26]?
Answer: 1.7 h

Question: And the Tmax [27]?
Answer: 1 h

Question: What about the MRT [28] of the same compound?
Answer: 3.5 h

Question: And the bioavailability [29]?
Answer: 50%

Question: And the fraction unbound [30]?
Answer: 0.05

Question: And the Tmax [31]?
Answer: 2.9 h

Question: And the Cmax [32]?
Answer: 2300 nM

Question: And the MRT [33]?
Answer: 1.7 h

Question: What about the AUC [34] of the same compound?
Answer: 102 µM·h
